The record followed here is publication PMC4751939, “Antileishmanial Activity of Compounds Derived from the Medicines for Malaria Venture Open Access Box against Intracellular Leishmania major Amastigotes” (The American Journal of Tropical Medicine and Hygiene, 2016).

As a reminder, the IC50 is the midpoint of a concentration-inhibition curve.

Where two headings read alike, the source gives them in different places.

What all share (assay type): cell-based
Series [1] concerns the target intracellular Leishmania major amastigotes (luciferase-expressing, in RAW 264.7 macrophages). Nature of the series: Luciferase-expressing intracellular L. major amastigote-macrophage dose-response assay. How it is done: Macrophages were harvested from culture by removing all spent media, adding in 10 mL of fresh media, scraping adherent macrophages from the culture flask, and counting macrophages using trypan blue. The cells were resuspended at 2.0 × 10^5 cells/mL, and then dispensed in a volume of 50 μL to yield a final concentration of 10,000 macrophages/well in 384-well tissue culture–treated sterile white plates (Nunc/Thermo Fisher, Rochester, NY) using a Tecan EVO Freedom robotics system (Tecan U.S., Durham, NC). The plates were then incubated at 37°C in 5% CO2 atmosphere for 24 hours. After incubation, the media was removed from each well using the Tecan EVO Freedom robot, and 1 × 10^5 transfected L. major promastigotes were added to each well in a volume of 50 μL in DMEM/heat-inactivated fetal bovine serum (HIFBS) media and allowed to invade the macrophages. After overnight incubation, the media was removed from each well using the Tecan Freedom EVO robot, and each well was subsequently washed three times with 40 μL of fresh DMEM/HIFBS medium to remove all extracellular promastigotes. After the third wash, 69.2 μL of DMEM/HIFBS medium was added to each well using the Tecan EVO Freedom robot. Drug plates were prepared with the Tecan EVO Freedom using sterile 96-well plates containing 12 duplicate 2-fold serial dilutions of each test compound suspended in dimethyl sulfoxide (DMSO) for dose–response determinations. Of diluted test compound, 7.8 μL was added to the 69.2 μL media present in each well providing a 10-fold final dilution of compound. The final concentration range tested was 0.0005–1 μM for all assays. The plates were placed in a modular incubator chamber (Billups-Rothenburg, Del Mar, CA) that contained a humidity source, consisting of soaked gauze in a weigh boat, which was placed in the bottom of the chamber. Both valves on the system were opened and using a vent filter (Millipore, Billerica, MA), attached to the one valve, mixed gas containing 5% O2, 5% CO2, and a balance of nitrogen was allowed to pass through the system for 60 seconds. After 60 seconds, the exit valve was closed and the mixed gas was allowed to flow into the chamber for 10 seconds. At that point the remaining valve was closed. Chambers were gassed every other day. The chambers were incubated at 37°C for 96 hours. After 96 hours of incubation, 7.5 μL luciferin solution (Caliper Life Science, Hopkinton, MA) diluted to 150 μg/mL was added to each well, and the plates were incubated for 30 minutes at 37°C in the dark. Each plate was read using an Infinite M200 plate reader (Tecan Inc., Durham, NC).
The 50% inhibitory concentrations (IC50) were then generated for each dose–response test using GraphPad Prism (GraphPad Software Inc., San Diego, CA) using the nonlinear regression (sigmoidal dose–response/variable slope) equation.

Another series deals with HepG2 cells. The series can be described thus: MTT cytotoxicity assay. To be noted: 48-hour incubation. The method, then:
(§1) An 3-(4,5-dimethylthiazol-2-yl)-2,5-diphenyltetrazolium bromide (MTT) cytotoxicity counter assay was used to test all compounds from the MMV Malaria Box for cytotoxicity. The 384-well MTT cytotoxicity assay is a modification of the MTT method described by Ferrari and others[29] optimized for 384-well throughput. HepG2 target cells for this assay were cultured in […]. The HepG2 target cells for this assay were cultured as follows: HepG2 cells were cultured in complete Minimal Essential Medium (MEM; catalog no. 11090-099, Gibco-Invitrogen) prepared by supplementing MEM with 0.19% sodium bicarbonate (catalog no. 25080-094, Gibco-BRL), 10% HIFBS (catalog no. 16000-036, Gibco-Invitrogen, Grand Island, NY), 2 mM L-glutamine (catalog no. 25030-081, Gibco-Invitrogen), 0.1 mM MEM nonessential amino acids (catalog no. 11140-050, Gibco-Invitrogen), 0.009 mg/mL insulin (catalog no. I1882, Sigma), 1.76 mg/mL bovine serum albumin (catalog no. A1470, Sigma), 20 units/mL penicillin–streptomycin (catalog no. 15140-148, Gibco-Invitrogen), and 0.05 mg/mL gentamycin (catalog no. 15710-064, Gibco-Invitrogen). HepG2 cells cultured in complete MEM were first washed with 1× Hank's Balanced Salt Solution (catalog no. 14175-095, Invitrogen), trypsinized using a 0.25% trypsin/ethylenediaminetetraacetic acid solution (catalog no. 25200-106, Invitrogen), assessed for viability using trypan blue, and resuspended at 250,000 cells/mL. Drug plates were prepared with the Tecan EVO Freedom using sterile 96-well plates containing 12 duplicate 1.6-fold serial dilutions of each test compound suspended in DMSO. Of diluted test compound, 4.25 μL was then added to the 38.3 μL of media in each well providing a 10-fold final dilution of compound. Compounds were tested from a range of 57 to 10,000 ng/mL for all assays. The 4-azaindolo[2,1-b]quinazoline-6,12-dione was used as a toxicity control. After a 48-hour incubation period, 8 μL of a 1.5 mg/mL solution of MTT diluted in complete MEM media was added to each well. All plates were subsequently incubated in the dark for 1 hour at room temperature. After incubation, the media and drugs in each well was removed by shaking plate over sink, the plates were then left to dry in hood for 15 minutes. Next, 30 μL of isopropanol acidified by addition of hydrochloric acid at a final concentration of 0.36% was added to dissolve the formazan dye crystals created by reduction of MTT. Plates are put on a three-dimensional rotator for 15–30 minutes. Absorbance was determined in all wells using a Tecan icontrol 1.6 Infinite plate reader. The IC50 determinations were then generated for each toxicity dose–response test using GraphPad Prism (GraphPad Software Inc., San Diego, CA) using the nonlinear regression (sigmoidal dose–response/variable slope) equation.
A general note: Tetrazolium assays rely on reduction of a dye to a coloured formazan, in cell work by metabolically active cells.

Another series can be described thus: MTT cytotoxicity assay. The following applies: human, HepG2 cells, 48-hour incubation. The method, then:
as §1

Where [2] appears, read: Leishmania major, RAW264.7, transgenic luciferase expressing intracellular L. major amastigote-macrophage parasites, 96 hours, read-out: Geometric mean L. major IC50 ± SD (n).
Where [3] appears, read: Leishmania major, RAW264.7, MMV Malaria Box L. major hits, intracellular amastigotes, 96 hours, read-out: IC50.
Setting [4] is: Leishmania major, RAW264.7, rounded values quoted in the discussion, read-out: L. major amastigote-macrophage IC50.

As to “2-{2-[(4-nitrophenyl)methylidene]hydrazin-1-yl}-1H-1,3-benzodiazole [MMV666023]”, the IC50 in series [1] (MMV Malaria Box L. major hits, intracellular amastigotes, 96 hours, read-out: IC50) worked out at 91.7 nM; in series [1] (rounded values quoted in the discussion, read-out: L. major amastigote-macrophage IC50), 92 nM; in the series on HepG2 cells it was 1300 nM.
On to `C[C@@H]1[C@H](O)[C@@H](C)/C=C/C=C/C=C/C=C/C=C/C=C/C=C/[C@H](O[C@@H]2O[C@H](C)[C@@H](O)[C@H](N)[C@@H]2O)C[C@@H]2O[C@](O)(C[C@@H](O)C[C@@H](O)[C@H](O)CC[C@@H](O)C[C@@H](O)CC(=O)O[C@H]1C)C[C@H](O)[C@H]2C(=O)O` [Amphotericin B, reference compound], for which the half-maximal inhibitory concentration (IC50) in series [1] (setting [2]) is 27 ± 10 nM.
Same read-out and setting: with `CC(=O)N1CCN(c2ccc(OCC3COC(Cn4ccnc4)(c4ccc(Cl)cc4Cl)O3)cc2)CC1` (stereo not drawn) [Ketoconazole, reference compound] the figure was 19800 ± 3900 nM.
As for `CCCCCn1c(=N)n(CC(O)COc2cccc(C)c2)c2ccccc21` (stereo not drawn) [MMV000444, 1-(2-imino-3-pentylbenzimidazol-1-yl)-3-(3-methylphenoxy)propan-2-ol], the IC50 in series [1] (setting [3]) was found to be 267 nM. Besides, the IC50 at 48 h in the series “MTT cytotoxicity assay” was found to be 4.13 µM.
For `c1ccc(CNc2nc(Nc3ccccc3)nc3ccccc23)cc1` [MMV006169, N-phenyl-N′-(phenylmethyl)quinazoline-2,4-diamine] the same measures were 467 nM and 5.66 µM.
Taken in the same sequence, the figures for `Cc1ccccc1OCCSc1nc2ccc(NC(=O)c3cccs3)cc2s1` [MMV007396, N-[2-[2-(2-methylphenoxy)ethylsulfanyl]-1,3-benzothiazol-6-yl]thiophene-2-carboxamide] were 120 nM and 3.5 µM.
Taken in the same sequence, the figures for `COc1ccc(CCNC(=O)c2cc(S(=O)(=O)N3CC(C)CC(C)C3)ccc2Sc2ccc(F)cc2)cc1OC` (stereo not drawn) [MMV007557, N-[2-(3,4-dimethoxyphenyl)ethyl]-5-(3,5-dimethylpiperidin-1-yl)sulfonyl-2-(4-fluorophenyl)sulfanylbenzamide] were 180 nM and greater than 6.06 µM.
`Cc1ccc(Cn2c(N3CCC(C(=O)NCc4cccs4)CC3)nc3ccccc32)cc1` [MMV007564, 1-[1-[(4-methylphenyl)methyl]benzimidazol-2-yl]-N-(thiophen-2-ylmethyl)piperidine-4-carboxamide]: the IC50 is 60.8 nM in series [1] (setting [3]) and 61 nM in series [1] (setting [4]). In addition, the concentration for half-maximal inhibition (IC50) at 48 h in the series “MTT cytotoxicity assay” was greater than 6.06 µM.
In the case of `CCCCN(CCCC)S(=O)(=O)c1ccc(NC(=O)c2ccco2)cc1` [MMV007881, N-[4-(dibutylsulfamoyl)phenyl]furan-2-carboxamide], the IC50 in series [1] (setting [3]) was 418 nM. In addition, the IC50 at 48 h in the series “MTT cytotoxicity assay” was 5.6 µM.
For `Cc1c(C)n(Cc2ccc(F)cc2)c2ccc(C(=O)NCc3ccco3)cc12` [MMV008149, 1-[(4-fluorophenyl)methyl]-N-(furan-2-ylmethyl)-2,3-dimethylindole-5-carboxamide] the same measures were 229 nM and 3.26 µM.
In series [1] (Leishmania major, RAW264.7, 96 h), `C[n+]1c2ccccc2nc2ccc(NCCO)cc21` [MMV396693, 2-[(10-methylphenazin-10-ium-2-yl)amino]ethanol] yielded a half-inhibitory concentration (IC50) of 53.4 nM. For the same compound, in “MTT cytotoxicity assay”, the IC50 at 48 h stood at 5.66 µM.
For `CCOC(=O)c1cn(CC)c2cc(N3CCCCC3)c(F)cc2c1=O` [MMV665827, ethyl 1-ethyl-6-fluoro-4-oxo-7-piperidin-1-ylquinoline-3-carboxylate], the half-inhibitory concentration (IC50) in series [1] (setting [3]) turned out to be 478 nM. The compound further registered a half-maximal inhibitory concentration (IC50) at 48 h in “MTT cytotoxicity assay” of 1.72 µM.
For `COc1ccc(CCN2CCC(CN(C)Cc3cnn(-c4ccccc4)c3)CC2)cc1` [MMV666069] the same measures were 366 nM and 5.82 µM.
Consider `O=C(NC(c1ccccc1)c1ccc2cccnc2c1O)c1ccccc1` (stereo not drawn) [MMV666080, N-[(8-hydroxyquinolin-7-yl)-phenylmethyl]benzamide], for which the 50% inhibitory concentration (IC50) in series [1] (setting [3]) came to 14.9 nM; in series [1] (setting [4]), 15 nM. Further, the IC50 at 48 h in the series “MTT cytotoxicity assay” was greater than 6.06 µM.
`O=[N+]([O-])c1ccc(C=NNc2nc3ccccc3[nH]2)cc1` [MMV666607, 2-{2-[(4-nitrophenyl)methylidene]hydrazin-1-yl}-1H-1,3-benzodiazole]: the IC50 in series [1] (setting [3]) and in series [1] (setting [4]) was 134 nM throughout. Also, in “MTT cytotoxicity assay”, the IC50 at 48 h is greater than 6.06 µM.
For `CCOc1ccc(N2C(N)=NC(N)=NC2(C)C)cc1` [MMV667486, 1-(4-ethoxyphenyl)-6,6-dimethyl-1,3,5-triazine-2,4-diamine], the IC50 in series [1] (setting [3]) is 193 nM. This compound showed a half-inhibitory concentration (IC50) at 48 h in the series “MTT cytotoxicity assay” greater than 6.06 µM.
In the case of `CCCCCCCCCCCCCCCCOP(=O)([O-])OCC[N+](C)(C)C` [Miltefosine, reference compound], the half-inhibitory concentration (IC50) in series [1] (setting [2]) was determined as 550 ± 30 nM.
Still for that read-out and setting: for `NC[C@@H]1O[C@H](O[C@H]2[C@@H](O)[C@H](O[C@@H]3[C@@H](O)[C@H](N)C[C@H](N)[C@H]3O[C@H]3O[C@H](CO)[C@@H](O)[C@H](O)[C@H]3N)O[C@@H]2CO)[C@H](N)[C@@H](O)[C@@H]1O` [Paromomycin, reference compound] the value was 780 ± 310 nM; for `N=C(N)c1ccc(OCCCCCOc2ccc(C(=N)N)cc2)cc1` [Pentamidine, reference compound], 3420 ± 1700 nM.
For the compound `O=C(O)[C@@H]1[O][Sb](=[O])([O][Sb]2(=[O])[O][C@H]([C@H](O)CO)[C@H](O)[C@H](C(=O)O)[O]2)[O][C@H]([C@H](O)CO)[C@@H]1O.[Na+].[Na+].[Na+]` (stereo partly drawn) [Pentostam, reference compound], the half-inhibitory concentration (IC50) in series [1] (transgenic luciferase expressing intracellular L. major amastigote-macrophage parasites, 96 hours, read-out: Geometric mean L. major IC50 ± SD (n)) came out at 9080 ± 350 nM.
Regarding `CCN(CC)CCCCCCNc1cc(OC)cc2c(C)ccnc12` [Sitamaquine, reference compound], the IC50 in series [1] (setting [2]) is 10000 ± 370 nM.
